Laboratory results taken from patent US5290698A, “Streptoverticillium ferm P-10489 which produces antitumor agent BE-13793C” (Banyu Pharmaceutical Co., Ltd., priority 1989, dated 1994).

Assays:
Ehrlich ascites cancer = test: Effect on Ehrlich ascites cancer transplanted in mice (survival); type: in vivo, mouse; settings: once a day 1st to 10th day; for MST (mean survival time): female ICR mice, control 13.1 day; for MST % T/C ((treated MST/control MST) × 100): ≥125 = marked antitumor effect
Source text: In this assay, 10^6 (lethal dose) tumor cells per mouse were intraperitoneally administered. Then the test substance was serially diluted and intraperitoneally administered.
^1 Inoculum: 10^6 Ehrich ascites cancer cells, intraperitoneal.
^2 Host: Female ICR mice.
^3 Treatment schedule: BE13793C was intraperitoneally administered
once a day from the 1st to the 10th day.
^4 MST: Mean survival time (in days).
^5 % T/C: (Treated MST/control MST) × 100.
^6 Criteria: When % T/C ≥ 125, the test compound was considere
to produce a marked antitumor effect at the particular dose.

P388/S tumor cells = test: In vitro antitumor assay, growth inhibition of P388/S tumor cells (72 h, Coulter counter); type: cell-based; settings: Mus musculus, 37° C., 5% CO2, 72 hours, read-out: concentration (IC50) causing 50% inhibition on P388/S tumor cell growth
Protocol: (§1) In vitro activity tests were performed for evaluating the inhibitory activities of the antitumor substance BE-13793C on mouse tumor cells. In the in vitro antitumor assay using P388 tumor cells, the test substance was first dissolved in dimethyl sulfoxide and the obtained solution was serially diluted with a cell culture medium containing 20% of dimethyl sulfoxide (20% v/v DMSO-RPMI-1640 medium). Then, 2 μl of the dilution was added to 200 μl of a cell culture medium (10% v/v fetal calf serum-RPMI-1640 medium) containing 2×10^4 or 3×10^4 tumor cells. Next, each mixture was incubated at 37° C. under 5% CO2 for 72 hours. The viable cells were then counted with a Coulter counter. The result was compared with the control data. […] The concentration (IC50) of the antitumor substance BE-13793C causing 50% inhibition on P388/S tumor cell growth was 0.7 μM, while that on P388/V cell growth was 0.7 μM.
(§2) The P388/S cells are commonly employed mouse leukemia cells while the P388/V cells are a strain of P388 leukemia cells which have acquired resistance to the anticancer agent vincristine.

[1] = Acidity/neutrality/basicity; type: physicochemical
P388/A cells = test: Growth inhibition of adriamycin-resistant P388/A cells; type: cell-based; settings: Mus musculus, read-out: 50% inhibitory concentration (IC50) on growth of P388/A cells
Protocol: as §1
Furthermore, the antitumor substance BE-13793C inhibited the growth of P388/A cells, which had acquired resistance to the anticancer agent adriamycin, and the 50% inhibitory concentration (IC50) thereof was 1.0 μM.

Solubility = type: physicochemical
female ICR mice = test: Acute toxicity on female ICR mice; type: in vivo, mouse; settings: 100 mg/kg i.p. once, on the 5th day
P388/V cells = test: In vitro antitumor assay, growth inhibition of vincristine-resistant P388/V cells; type: cell-based; settings: Mus musculus, 37° C., 5% CO2, 72 hours, read-out: concentration (IC50) causing 50% inhibition on P388/V cell growth
Protocol: as §1, §2

O=C1NC(=O)c2c1c1c3cccc(O)c3[nH]c1c1[nH]c3c(O)cccc3c21 [BE-13793C]
MST (mean survival time) (Ehrlich ascites cancer; 8 mg/kg/injection i.p.): 16.0 days
MST % T/C ((treated MST/control MST) × 100) (Ehrlich ascites cancer; 8 mg/kg/injection i.p.): 122%
MST (mean survival time) (Ehrlich ascites cancer; 20 mg/kg/injection i.p.): 26.4 days
MST % T/C ((treated MST/control MST) × 100) (Ehrlich ascites cancer; 20 mg/kg/injection i.p.): 202%
MST (mean survival time) (Ehrlich ascites cancer; 50 mg/kg/injection i.p.): 28.6 days
MST % T/C ((treated MST/control MST) × 100) (Ehrlich ascites cancer; 50 mg/kg/injection i.p.): 218%
IC50 (P388/S tumor cells): 700 nM
Acidity/neutrality/basicity [1]: acidic
IC50 (P388/A cells): 1000 nM
solubility in dimethyl sulfoxide (Solubility; dimethyl sulfoxide): highly soluble
solubility in methanol (Solubility; methanol): soluble
solubility in tetrahydrofuran (Solubility; tetrahydrofuran): highly soluble
solubility in water (Solubility; water): hardly soluble
death (acute toxicity) (female ICR mice): no death was found
IC50 (P388/V cells): 700 nM
